Results: PubChem BioAssay AID330 (DTP/NCI, 2004)
“And” between values parts separate entries of the source, which are not always exact repeats. Identical values can stand only once. Inconclusive results and toxic doses are left out. How the source made its calls: active means survival T/C of 150% or more; inactive means T/C below 125% in these data.

Test system: P388 leukemia ip, CD2F1 mice, survival T/C
Assay: NCI In Vivo Anticancer Drug Screen. Data for tumor model P388 Leukemia (intraperitoneal) in CD2F1 (CDF1) mice
Conditions: endpoint: median survival time, higher = longer survival
Summary of the method: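 Mice carrying the transplanted tumor received test compound or vehicle. Survival was recorded in each group, and the value is the treated-group measurement divided by that of the vehicle-treated control group.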

[1] = dose: 50.0 mg/kg/injection, schedule: Q04DX003 (ip), vehicle: Klucel (hydroxypropylcellulose) (HPC)
[2] = dose: 100.0 mg/kg/injection, schedule: Q04DX003 (ip), vehicle: Klucel (hydroxypropylcellulose) (HPC)
[3] = dose: 50.0 mg/kg/injection, schedule: Q01DX005 (ip), vehicle: saline with Tween-80
[4] = dose: 100.0 mg/kg/injection, schedule: Q01DX005 (ip), vehicle: saline with Tween-80
[5] = dose: 50.0 mg/kg/injection, schedule: Q01DX009 (ip), vehicle: saline
[6] = dose: 100.0 mg/kg/injection, schedule: Q01DX009 (ip), vehicle: saline
[7] = dose: 200.0 mg/kg/injection, schedule: Q01DX009 (ip), vehicle: saline
[8] = dose: 50.0 mg/kg/injection, schedule: Q01DX009 (ip), vehicle: saline with Tween-80
[9] = dose: 100.0 mg/kg/injection, schedule: Q01DX009 (ip), vehicle: saline with Tween-80
[10] = dose: 200.0 mg/kg/injection, schedule: Q01DX009 (ip), vehicle: saline with Tween-80
[11] = dose: 12.5 mg/kg/injection, schedule: Q01DX005 (ip), vehicle: saline with Tween-80
[12] = dose: 200.0 mg/kg/injection, schedule: Q01DX005 (ip), vehicle: saline with Tween-80
[13] = dose: 50.0 mg/kg/injection, schedule: Q01DX009 (ip), vehicle: suspension in saline
[14] = dose: 200.0 mg/kg/injection, schedule: Q01DX009 (ip), vehicle: suspension in saline
[15] = dose: 60.0 mg/kg/injection, schedule: Q01DX005 (ip), vehicle: saline with Tween-80
[16] = dose: 120.0 mg/kg/injection, schedule: Q01DX005 (ip), vehicle: saline with Tween-80
[17] = dose: 240.0 mg/kg/injection, schedule: Q01DX005 (ip), vehicle: saline with Tween-80
[18] = dose: 25.0 mg/kg/injection, schedule: Q01DX005 (ip), vehicle: saline with Tween-80

Measured: T/C

CNC1CCCc2c(O)cccc21 (stereo not drawn)
inactive: [1] 99 % of control | [2] 101 % of control

CCN(CC)CCN(CC)c1ccccc1
inactive: [3] 105 % of control | [4] 102 % of control

N#CCCNc1ccc(F)cc1
inactive: [5] 100 % of control | [6] 109 % of control | [7] 104 % of control

C#CCC(C(=O)OC)N(CC)CC (stereo not drawn)
inactive: dose: 60.0 mg/kg/injection, schedule: Q01DX005 (ip), vehicle: saline 107 % of control | dose: 120.0 mg/kg/injection, schedule: Q01DX005 (ip), vehicle: saline 111 % of control | dose: 240.0 mg/kg/injection, schedule: Q01DX005 (ip), vehicle: saline 120 % of control

O=C1OC(C(O)C(O)CO)C(O)C1O (stereo not drawn)
inactive: dose: 50.0 mg/kg/injection, schedule: Q01DX005 (ip), vehicle: saline 108 % of control | dose: 100.0 mg/kg/injection, schedule: Q01DX005 (ip), vehicle: saline 100 % of control | dose: 200.0 mg/kg/injection, schedule: Q01DX005 (ip), vehicle: saline 95 % of control

COC(=O)C1C(OS(=O)(=O)O)CCC2CN3CCc4c([nH]c5ccccc45)C3CC21 (stereo not drawn)
inactive: dose: 60.0 mg/kg/injection, schedule: Q01DX005 (ip), vehicle: Klucel (hydroxypropylcellulose) (HPC) 102 % of control | dose: 120.0 mg/kg/injection, schedule: Q01DX005 (ip), vehicle: Klucel (hydroxypropylcellulose) (HPC) 105 % of control | dose: 240.0 mg/kg/injection, schedule: Q01DX005 (ip), vehicle: Klucel (hydroxypropylcellulose) (HPC) 103 % of control

COc1cc(OC)c(NC(=O)NNC(=O)C(=O)NC2CC2)cc1Cl
inactive: [8] 99 % of control | [9] 97 % of control | [10] 98 % of control

CCN1C=C/C(=C/c2cc3scc(-c4ccccc4)[n+]3c3ccccc23)c2ccccc21
inactive: dose: 0.32 mg/kg/injection, schedule: Q04DX003 (ip), vehicle: saline sonified 109 % of control

NC(=O)c1ncnc2nc[nH]c12
inactive: dose: 1.56 mg/kg/injection, schedule: Q01DX005 (ip), vehicle: saline with Tween-80 100 % of control and 102 % of control and 96 % of control | dose: 3.13 mg/kg/injection, schedule: Q01DX005 (ip), vehicle: saline with Tween-80 100 % of control and 105 % of control | [11] 111 % of control and 114 % of control

C=C1C(NC)CCC23CC24CCC2(C)C(C(C)=O)C(O)CC2(C)C4CCC13 (stereo not drawn)
inactive: [8] 92 % of control | [9] 96 % of control

COC(=O)C(C)n1c(C(C)C)csc1=S (stereo not drawn)
inactive: [3] 111 % of control | [4] 110 % of control | [12] 98 % of control

N=C(N)SCCN1C(=O)NC(c2ccccc2)(c2ccccc2)C1=O
inactive: dose: 25.0 mg/kg/injection, schedule: Q04DX003 (ip), vehicle: Klucel (hydroxypropylcellulose) (HPC) 114 % of control | [1] 114 % of control | [2] 96 % of control | dose: 200.0 mg/kg/injection, schedule: Q04DX003 (ip), vehicle: Klucel (hydroxypropylcellulose) (HPC) 114 % of control

COc1ccc(CSC(=S)Nc2cccc(C(F)(F)F)c2)cc1
inactive: [5] 97 % of control | [13] 90 % of control | [6] 101 % of control | [7] 118 % of control | [14] 99 % of control

Cc1cc(C)c(N(CCO)CCO)cc1C
inactive: [8] 99 % of control | [9] 108 % of control | [10] 97 % of control

CNCC(CO)C(C)(C)C (stereo not drawn)
inactive: dose: 100.0 mg/kg/injection, schedule: Q04DX003 (ip), vehicle: saline 101 % of control | dose: 200.0 mg/kg/injection, schedule: Q04DX003 (ip), vehicle: saline 92 % of control

COc1ccc2c(c1)S(=O)(=O)C(c1ccccc1)=CC2=O
inactive: dose: 50.0 mg/kg/injection, schedule: Q01DX005 (ip), vehicle: Klucel (hydroxypropylcellulose) (HPC) 114 % of control | dose: 100.0 mg/kg/injection, schedule: Q01DX005 (ip), vehicle: Klucel (hydroxypropylcellulose) (HPC) 115 % of control | dose: 200.0 mg/kg/injection, schedule: Q01DX005 (ip), vehicle: Klucel (hydroxypropylcellulose) (HPC) 123 % of control

Cc1ccc2[nH]c(=S)n(-c3ccc(S(=O)(=O)N4CCCCC4)cc3)c(=O)c2c1
inactive: [3] 89 % of control | [4] 91 % of control | [12] 90 % of control

COC1/C=C/OC2(C)Oc3c(C)c(O)c4c(c3C2=O)C(=O)C=C(NC(=O)/C(C)=C\C=C\C(C)C2OC(C)(C)OC(C(C)C(=O)C1C)C2C)C4=O (stereo not drawn)
inactive: dose: 100.0 mg/kg/injection, schedule: Q01DX001 (ip), vehicle: saline with Tween-80 103 % of control | dose: 200.0 mg/kg/injection, schedule: Q01DX001 (ip), vehicle: saline with Tween-80 95 % of control | dose: 400.0 mg/kg/injection, schedule: Q01DX001 (ip), vehicle: saline with Tween-80 100 % of control

O=C(Cc1nc2ccc([N+](=O)[O-])cc2nc1CC(=O)c1cccnc1)c1cccnc1
inactive: [15] 97 % of control | [16] 92 % of control | [17] 90 % of control

Cc1ccccc1-[n+]1nc(-c2ccccc2)nn1-c1ccccc1
inactive: dose: 0.31 mg/kg/injection, schedule: Q01DX009 (ip), vehicle: saline with Tween-80 95 % of control | dose: 0.63 mg/kg/injection, schedule: Q01DX009 (ip), vehicle: saline with Tween-80 104 % of control | dose: 1.25 mg/kg/injection, schedule: Q01DX009 (ip), vehicle: saline with Tween-80 95 % of control

COc1ccc(CSC(=S)Nc2cc(C)c(C)cc2[N+](=O)[O-])cc1
inactive: [13] 93 % of control | dose: 100.0 mg/kg/injection, schedule: Q01DX009 (ip), vehicle: suspension in saline 97 % of control | [14] 97 % of control

O=c1[nH]c2ccccc2n1CCCN1CCN(C(c2ccccc2)c2ccccc2)CC1
inactive: [8] 102 % of control | [9] 94 % of control | [10] 95 % of control

CCN(CC)CCOc1ccccc1C(C)=O
inactive: [18] 93 % of control | [3] 99 % of control

O=c1ccc2cc3c(nc2[nH]1)[nH]c1ccccc13
inactive: dose: 100.0 mg/kg/injection, schedule: Q04DX002 (ip), vehicle: Klucel (hydroxypropylcellulose) (HPC) 101 % of control | dose: 200.0 mg/kg/injection, schedule: Q04DX002 (ip), vehicle: Klucel (hydroxypropylcellulose) (HPC) 99 % of control | dose: 400.0 mg/kg/injection, schedule: Q04DX002 (ip), vehicle: Klucel (hydroxypropylcellulose) (HPC) 101 % of control

O=C1c2ccccc2-c2c1nc1ccccc1[n+]2[O-]
inactive: dose: 6.25 mg/kg/injection, schedule: Q01DX005 (ip), vehicle: saline 102 % of control | dose: 12.5 mg/kg/injection, schedule: Q01DX005 (ip), vehicle: saline 103 % of control | dose: 25.0 mg/kg/injection, schedule: Q01DX005 (ip), vehicle: saline 96 % of control

C=C1C(=O)[C@]23C[C@H]1CC[C@H]2[C@@]12CO[C@@H](O)[C@@H]1C(C)(C)[C@@H](O)C[C@@H]2OC3=O
inactive: dose: 3.8 mg/kg/injection, schedule: Q01DX008 (ip), vehicle: saline with Tween-80 100 % of control | dose: 7.5 mg/kg/injection, schedule: Q01DX008 (ip), vehicle: saline with Tween-80 102 % of control | dose: 7.5 mg/kg/injection, schedule: Q01DX009 (ip), vehicle: saline with Tween-80 113 % of control | dose: 15.0 mg/kg/injection, schedule: Q01DX008 (ip), vehicle: saline with Tween-80 94 % of control | dose: 15.0 mg/kg/injection, schedule: Q01DX009 (ip), vehicle: saline with Tween-80 123 % of control | dose: 30.0 mg/kg/injection, schedule: Q01DX008 (ip), vehicle: saline with Tween-80 102 % of control | dose: 30.0 mg/kg/injection, schedule: Q01DX009 (ip), vehicle: saline with Tween-80 117 % of control | dose: 60.0 mg/kg/injection, schedule: Q01DX009 (ip), vehicle: saline with Tween-80 113 % of control

OC(c1cc2c(Cl)cc(Cl)cc2c2cc(C(F)(F)F)ccc12)C1CCCCN1 (stereo not drawn)
inactive: dose: 6.25 mg/kg/injection, schedule: Q01DX009 (ip), vehicle: saline with Tween-80 101 % of control | dose: 12.5 mg/kg/injection, schedule: Q01DX009 (ip), vehicle: saline with Tween-80 100 % of control | dose: 25.0 mg/kg/injection, schedule: Q01DX009 (ip), vehicle: saline with Tween-80 100 % of control

C[Si]1(C)O[Si](C)(C)N(N)P(=S)(Oc2ccccc2)N1N
inactive: [11] 101 % of control | [18] 108 % of control | [3] 104 % of control and 111 % of control

[N-]=[N+]=Nc1cc(-c2ccccc2)nc2cc3c(cc12)OCO3
inactive: [15] 97 % of control | [16] 105 % of control | [17] 108 % of control
